Measurements from patent publication US20240009121A1, “PHARMACEUTICAL COMPOSITION CONTAINING NEUROACTIVE STEROID AND USE THEREOF” (Brii Biosciences, Inc., priority 2020, published 2024).
Like-named read-outs stand apart in the source and are kept apart here.

Assays:
dog [1] = conditions: single IV slow bolus, cited from earlier work
[2] = 28-day continuous IV infusion, cited from earlier work
[3] = 28-day continuous IV infusion, cited from earlier work; remark: listed apart in the source
Sprague Dawley rats = conditions: rat, cited from earlier work
rat = conditions: single IV slow bolus, cited from earlier work
[4] = brexanolone IV at the MRHD of 90 μg/kg/h; cited from earlier work
[5] = Single IV infusion PK of brexanolone in rats; type: in vivo; conditions: male Sprague Dawley rat; single IV infusion 1.0 mg/kg over 30 minutes; mean
Method: (§1) Following a single IV infusion in rats (1.0 mg/kg) and dogs (2.0 mg/kg) over 30 minutes, the PK parameters in Table 2 were obtained.
(§2) In the rat and dog PK studies including brexanolone IV infusion and IM administrations, brexanolone was quantified in rat and dog plasma using a sensitive and specific analytical procedure. Analytes were separated by liquid chromatography (LC) and brexanolone was detected by positive mode electrospray tandem mass spectrometry (MS/MS). The lower limit of quantitation (LLOQ) was 1.0 to 3.0 ng/mL. In the GLP study, LLOQ was 1.0 ng/mL in the rat.
(§3) Intravenous dosing of brexanolone was performed through a 30-min infusion via the jugular vein cannula (JVC) or a temporary percutaneous catheter placed into a lateral tail vein in rats, and via the cephalic vein in dogs. Different suspension formulations were also dosed intramuscularly into the rats and dogs in accordance with test facility standard operating procedures. At the designated time points, blood was collected via direct venipuncture of a cephalic or jugular vein in rats and via the cephalic or saphenous vein in dog. Blood was transferred into collection tubes containing K2EDTA anticoagulant and stored on ice until processed. Blood was processed for plasma by centrifugation. Plasma was then transferred into a 96-well container and stored in a freezer maintained at approximately −70° C. The quantitative analyses of the resulted plasma samples were conducted using a qualified LC-MS/MS method.

rats = conditions: rat, cited from earlier work
[6] = Single IV infusion PK of brexanolone in dogs; type: in vivo; conditions: male Beagle dog; single IV infusion 2.0 mg/kg over 30 minutes; mean
Method: as §1, §2, §3

Beagle dogs = conditions: dog, cited from earlier work
dog [7] = conditions: cited from earlier work
[8] = rat, 14-day continuous IV infusion, 18 mg/kg/day, cited from earlier work
[9] = dog, 14-day continuous IV infusion, 36 mg/kg/day, cited from earlier work
[10] = 28-day continuous IV infusion, 10, 30, 60 mg/kg/day
[11] = 5-day continuous IV infusion study
[12] = 28-day continuous IV infusion, 12, 36, 72 mg/kg/day

## 1-(3R,5S,8R,9S,10S,13S,14S,17S)-3-hydroxy-10,13-dimethylhexadecahydro-1H-cyclopenta[a]phenanthren-17-yl) ethan-1-one [brexanolone]
Dog [1]; doses ≤30 mg/kg
  single bolus dose at which rapid anesthesia (within 1 minute) was observed: ≥ 7.5 mg/kg
Dog [1]; irregular breathing in 1 of 4 dogs at 30 mg/kg
  MTD for slow bolus administration: 20 mg/kg
[2]; rat F, 10 mg/kg/day
  AUC0-24 h (= AUC0-672 h/28): 1.41 µg·h/mL
  Cmax: 0.0631 µg/mL
  Css (= AUC0-672 h/672 h): 0.0588 µg/mL
[2]; rat F, 30 mg/kg/day
  AUC0-24 h (= AUC0-672 h/28): 4.32 µg·h/mL
  Cmax: 0.219 µg/mL
  Css (= AUC0-672 h/672 h): 0.18 µg/mL
[2]; rat F, 60 mg/kg/day
  AUC0-24 h (= AUC0-672 h/28): 8.11 µg·h/mL
  Cmax: 0.441 µg/mL
  Css (= AUC0-672 h/672 h): 0.338 µg/mL
[2]; rat M, 10 mg/kg/day
  AUC0-24 h (= AUC0-672 h/28): 1.79 µg·h/mL
  Cmax: 0.0938 µg/mL
  Css (= AUC0-672 h/672 h): 0.0744 µg/mL
[2]; rat M, 30 mg/kg/day
  AUC0-24 h (= AUC0-672 h/28): 4.89 µg·h/mL
  Cmax: 0.233 µg/mL
  Css (= AUC0-672 h/672 h): 0.204 µg/mL
[2]; rat M, 60 mg/kg/day
  AUC0-24 h (= AUC0-672 h/28): 9.96 µg·h/mL
  Cmax: 0.464 µg/mL
  Css (= AUC0-672 h/672 h): 0.415 µg/mL
[3]; dog F, 12 mg/kg/day
  AUC0-24 h (= AUC0-672 h/28): 1.82 µg·h/mL
  Cmax: 0.0973 µg/mL
  Css (= AUC0-672 h/672 h): 0.0759 µg/mL
[3]; dog F, 36 mg/kg/day
  AUC0-24 h (= AUC0-672 h/28): 6.96 µg·h/mL
  Cmax: 0.338 µg/mL
  Css (= AUC0-672 h/672 h): 0.29 µg/mL
[3]; dog F, 72 mg/kg/day
  AUC0-24 h (= AUC0-672 h/28): 11.3 µg·h/mL
  Cmax: 0.571 µg/mL
  Css (= AUC0-672 h/672 h): 0.471 µg/mL
[3]; dog M, 12 mg/kg/day
  AUC0-24 h (= AUC0-672 h/28): 1.68 µg·h/mL
  Cmax: 0.0893 µg/mL
  Css (= AUC0-672 h/672 h): 0.0699 µg/mL
[3]; dog M, 36 mg/kg/day
  AUC0-24 h (= AUC0-672 h/28): 5.76 µg·h/mL
  Cmax: 0.31 µg/mL
  Css (= AUC0-672 h/672 h): 0.24 µg/mL
[3]; dog M, 72 mg/kg/day
  AUC0-24 h (= AUC0-672 h/28): 12.9 µg·h/mL
  Cmax: 0.708 µg/mL
  Css (= AUC0-672 h/672 h): 0.538 µg/mL
Sprague Dawley rats; females, 30 mg/kg/day, Day 7 to 28
  body weight gain compared to vehicle controls: 138%
Sprague Dawley rats; females, 30 mg/kg/day, Day −1 to 7
  body weight gain compared to vehicle controls: 160%
Sprague Dawley rats; females, 60 mg/kg/day, Day 7 to 28
  body weight gain compared to vehicle controls: 123%
Sprague Dawley rats; females, 60 mg/kg/day, Day −1 to 7
  body weight gain compared to vehicle controls: 193%
Sprague Dawley rats; males, 10 mg/kg/day, first 7 days
  body weight gain compared to vehicle controls: 126%
Sprague Dawley rats; males, 30 mg/kg/day, first 7 days
  body weight gain compared to vehicle controls: 126%
Sprague Dawley rats; males, 60 mg/kg/day, Day 7 to 28
  body weight gain compared to vehicle controls: 71%
Sprague Dawley rats; males, 60 mg/kg/day, first 7 days
  body weight gain compared to vehicle controls: 132%
Sprague Dawley rats; 60 mg/kg/day vs human 90 μg/kg/h
  exposure at NOAEL as multiple of the human exposure at the MRHD: 5 times
Sprague Dawley rats; [10]
  mortality: no test article or vehicle-related mortalities
  test article related clinical observations: No test article related clinical observations were noted
Sprague Dawley rats; 28-day continuous IV infusion
  NOAEL: 60 mg/kg/day
rat; doses ≤50 mg/kg
  single bolus dose at which rapid anesthesia (within 1 minute) was observed: ≥ 10 mg/kg
rat; shallow respiration and death of one male at 50 mg/kg
  maximum tolerated dose (MTD) for slow bolus administration: 30 mg/kg
[4]
  human exposure AUC0-24h: 1.8 µg·h/mL
  human exposure Css: 0.0743 µg/mL
[5]
  AUC0-inf: 0.177 µg·h/mL
  AUC0-t: 0.175 µg·h/mL
  MRTinf: 21.5 min
rats; [11]
  MTD: 120 mg/kg/day
rats; 14-day continuous IV infusion study
  NOAEL for poor clinical condition resulting in premature euthanasia: 18 mg/kg/day
[6]
  AUC0-inf: 0.289 µg·h/mL
  AUC0-t: 0.283 µg·h/mL
  CL: ~7.22 L/h/kg
  MRTinf: 26.5 min
  T1/2: ~101 min
  Vss: ~2.99 L/kg
Beagle dogs; 12 mg/kg/day vs human 90 μg/kg/h
  exposure at NOAEL relative to the human exposure at the MRHD: equivalent to the human exposure
Beagle dogs; [12]
  mortality: no test article- or vehicle-related mortalities
  test article-related clinical signs: limited to one male dosed with 36 mg/kg which had a convulsion occurring 4 days after completing the 28-day infusion
Beagle dogs; 28-day continuous IV infusion, based on convulsion in one 36 mg/kg dog and SBECD-related renal tubular vacuolation at ≥36 mg/kg
  NOAEL: 12 mg/kg/day
Dog [7]; [11]
  MTD: 60 mg/kg/day
Dog [7]; 14-day continuous IV infusion study, convulsion in one female at 72 mg/kg/day
  NOAEL: 36 mg/kg/day
[8]; females
  AUC0 24 h at NOAEL: 1.79 µg·h/mL
  Cmax at NOAEL: 0.111 µg/mL
[8]; males
  AUC0 24 h at NOAEL: 2.91 µg·h/mL
  Cmax at NOAEL: 0.196 µg/mL
[9]; females
  AUC0-24h at NOAEL: 3.84 µg·h/mL
  Cmax at NOAEL: 0.21 µg/mL
[9]; males
  AUC0-24h at NOAEL: 3.56 µg·h/mL
  Cmax at NOAEL: 0.201 µg/mL
